System: Beagle dogs
Assay: Intravenous infusion toxicity study (maximum tolerable dose, escalating doses) in Beagle dogs
Type: in vivo
Description: The purpose of this study was to determine the maximum tolerable dose of tetra-O-methyl NDGA (M4N) when administered by intravenous infusion to male and female Beagle dogs, supplied by Convince Research Products (Cumberland, Va., U.S.A). Two Beagle dogs, one male and one female, about 6 to 9 months old at first dose, were administered the cyclodextrin vehicle containing 20% (w/v) HP-β-CD and 50% PEG 300, on Study Day (“SD”) 1, followed by escalating levels of M4N prepared in the cyclodextrin vehicle (i.e., the test articles). The preformed cyclodextrin vehicle and test articles were stored at room temperature. Sterile water, used as diluent, was obtained from Baxter Health Care Corp. (Deerfield, Mich., U.S.A) or Abbott Laboratories (North Chicago, Ill., U.S.A.) and stored at room temperature.
The test article, cyclodextrin vehicle and diluent were considered 100% pure for formulation purposes. Dose formulations were prepared on each day of dosing by adding the appropriate amount of test article or cyclodextrin vehicle into a glass container using a sterile syringe. For each dose, an equal amount of sterile water was added to the M4N formulation or cyclodextrin vehicle to form a 50:50 (v/v) dilution. No dilution was required for the 200 mg/kg dose. All formulations were mixed by gentle inversion to ensure that a proper solution was formed. Formulations were loaded into medication cassettes and stored at room temperature until needed.
M4N was administered at 25 mg/kg on SD 3, 50 mg/kg on SD 5, and 100 mg/kg on SD 8. Only the female received the full 100 mg/kg dose; due to mechanical malfunctions caused by precipitation in the infusion line, the male dog received approximately 72 mg/kg (i.e., 72%) of the intended dose. Two additional Beagle dogs were administered a 200 mg/kg dose; however, mechanical difficulties ensued and the male dog received approximately 180 mg/kg (90%) of the intended dose, whereas the amount the female received could not be determined.
Using aseptic surgical techniques, the animals were catheterized with an in-dwelling catheter inserted into the jugular vein, and were treated prophylactically with an analgesic and antibiotic on the day of surgery and with antibiotics and/or analgesics for 8 days following surgery.
Following completion of each intravenous infusion, 1 mL of sterile saline was administered as a slow bolus injection to flush the test material from the infusion line into the animal, followed by an injection of heparin-saline solution to fill the infusion line to maintain patency. The animals were observed. Cageside observation included observation for mortality, morbundity, general health, and signs of toxicity. […]

`COc1ccc(C[C@@H](C)[C@@H](C)Cc2ccc(OC)c(OC)c2)cc1OC` [Formulation M4N, meso-1,4-bis(3,4-dimethoxyphenyl)-2,3-dimethylbutane] was tested, and the “Individual Body Weights” value (Male dog 10567, SD13) was 10.2 kg, the “gross pathology and microscopic changes” value (dog, in vivo) was “no test-article related gross pathology findings or microscopic changes” and the “doses at which no treatment-related adverse effects were observed” value (dog, in vivo, iv) was “up to 200 mg/kg”. The mortality (escalating IV infusion doses 25 to 200 mg/kg in 20% HP-β-CD/50% PEG 300 vehicle) was “no effect”.

From patent US20080096967A1, “Formulations for Injection of Catecholic Butanes, Including Ndga Compounds, Into Animals” (priority 2005, published 2008)
